From US12454530B2, “Amido cyclohexane acid derivatives as LPA receptor inhibitors” (CHIESI FARMACEUTICI S.P.A., priority 2020, dated 2025)

Legend:
[1] = target: human recombinant LPA1 expressed in CHO cells (Homo sapiens (Human), UniProt Q92633); experiment: LPA1 antagonist FLIPR calcium assay in CHO-hLPA1 cells; format: cell-based; settings: range of activity; CHO-hLPA1, LPA EC80, Ca2+ mobilization; read-out: LPA1 IC50
Method: The effectiveness of compounds of the present invention as LPA1 antagonists can be determined at the human recombinant LPA1 expressed in CHO cells, using a FLIPR assay in 384 well format.
CHO-hLPA1 cell lines are cultured in a humidified incubator at 5% CO2 in DMEM/F-12 (1:1) MIXTURE with 2 mM Glutamax, supplemented with 10% of Foetal Bovine Serum, 1 mM Sodium Pyruvate, 11 mM Hepes and 1× Penicillin/Streptomycin. […] Serial dilutions (1:3 or 1:4, 11 points CRC) of compounds are performed in 100% DMSO at 200× the final concentration. […] The final concentration of DMSO in the assay will be 0.5% in each well. Medium is removed by aspiration and cells are then incubated with 30 μl of a loading solution containing 5 μM of the cytoplasmic Ca2+ indicator Cal-520 AM in Assay Buffer containing 2.5 mM probenecid for 30 min at 37° C. incubator (cell loading). The loaded cell plates are transferred into the FLIPR instrument and calcium responses are monitored during the on-line addition protocols. For testing of compounds, after the cell loading, 10 μl/well of 4× antagonists' solution was added onto the cells. After 30 min pre-incubation (at 37° C.), 10 μl/well of 5× concentrated LPA EC80 was added and Ca2+ mobilization responses was followed during the on-line addition protocol. Intracellular peak fluorescence values subtracted by baseline fluorescence are exported and analysed to determine IC50 values, respectively. The calcium response is expressed as percentage of the maximal inhibition of the EC80 agonist response.
The raw data (peak height expressed as relative fluorescence units) are normalized and transformed into “percent of inhibition”. Curve fitting and pIC50 (−LogIC50) estimations are carried out using a four-parameter logistic model using XLfit Software.

[2] = target: BSEP (Homo sapiens (Human), UniProt O95342); experiment: BSEP inhibition: biliary clearance of Taurocolic Acid in sandwich-cultured human hepatocytes; format: in vitro ADME; settings: sandwich-cultured cryopreserved human hepatocytes, probe Taurocolic Acid (TCA); 50 μM test compound, 10 μM TCA, human hepatocytes sandwich configuration
Method: BSEP inhibition was evaluated using human hepatocytes cultured between two layer of collagen (sandwich configuration). In this culture condition, hepatocytes express relevant transporters including BSEP and retain the bile canalicular structure. An inhibition of the biliary clearance of Taurocolic Acid (TCA), a known BSEP substrate, was used to assess BSEP interaction.
BSEP inhibition was evaluated using cryopreserved human hepatocytes (Plateable Cryopreserved Human Hepatocytes, BIOIVT) cultured for 5 day between two layer of collagen (sandwich configuration). In this culture condition, hepatocytes express relevant transporters including BSEP and retain the bile canalicular structure.
On day 5 of culture, hepatic cells are ready for the assay and the biliary clearance of Taurocolic Acid (TCA), a known BSEP substrate, can be estimated in presence and in absence of compound of interest.
The sample solution was prepared dissolving test compound and TCA in DMSO and then diluted in the Assay Buffer: Hank's Balance Salt Solution (HBSS+) warmed at 37° C. before use, to give the 10 μM TCA working solution with and without 50 μM of test compound. Hepatocytes were incubated for 10 minutes with these working solutions allowing TCA to be excreted into bile. At the end of incubation, the working solution was aspirated, and the content of the bile was collected through the addition of HBSS Modified without Ca2+/Mg2+(HBSS−). The presence of Ca2+ in the buffer is required to maintain the integrity of the tight junctions, the diffusional barrier between the canalicular lumen and extracellular space. Instead, incubation of cells in Ca2+-free buffer disrupts the tight junctions and opens the bile canalicular structures, allowing the bile content to be released and collect for HPLC-MS/MS analysis.
The in vitro biliary clearance of TCA incubated with and without test compounds is calculated according to the following formula:
where • Acc. Bile=(TCA amount in HBSS (−) buffer samples (pmol/mg protein)*Volume of each samples (mL))/Protein content per well (mg) • AUC=Incubation time (min)*T0 Concentration. T0 concentration is the initial TCA concentration in the medium.
The inhibition of BSEP was calculated as percentage of inhibition of TCA biliary clearance in presence of compound of interest, according to the following formula: BSEP inhibition %=100−(TCA ClBil with test compound*100)
TCA ClBil without test compound.

BSEP, sequence (O95342 whole entry): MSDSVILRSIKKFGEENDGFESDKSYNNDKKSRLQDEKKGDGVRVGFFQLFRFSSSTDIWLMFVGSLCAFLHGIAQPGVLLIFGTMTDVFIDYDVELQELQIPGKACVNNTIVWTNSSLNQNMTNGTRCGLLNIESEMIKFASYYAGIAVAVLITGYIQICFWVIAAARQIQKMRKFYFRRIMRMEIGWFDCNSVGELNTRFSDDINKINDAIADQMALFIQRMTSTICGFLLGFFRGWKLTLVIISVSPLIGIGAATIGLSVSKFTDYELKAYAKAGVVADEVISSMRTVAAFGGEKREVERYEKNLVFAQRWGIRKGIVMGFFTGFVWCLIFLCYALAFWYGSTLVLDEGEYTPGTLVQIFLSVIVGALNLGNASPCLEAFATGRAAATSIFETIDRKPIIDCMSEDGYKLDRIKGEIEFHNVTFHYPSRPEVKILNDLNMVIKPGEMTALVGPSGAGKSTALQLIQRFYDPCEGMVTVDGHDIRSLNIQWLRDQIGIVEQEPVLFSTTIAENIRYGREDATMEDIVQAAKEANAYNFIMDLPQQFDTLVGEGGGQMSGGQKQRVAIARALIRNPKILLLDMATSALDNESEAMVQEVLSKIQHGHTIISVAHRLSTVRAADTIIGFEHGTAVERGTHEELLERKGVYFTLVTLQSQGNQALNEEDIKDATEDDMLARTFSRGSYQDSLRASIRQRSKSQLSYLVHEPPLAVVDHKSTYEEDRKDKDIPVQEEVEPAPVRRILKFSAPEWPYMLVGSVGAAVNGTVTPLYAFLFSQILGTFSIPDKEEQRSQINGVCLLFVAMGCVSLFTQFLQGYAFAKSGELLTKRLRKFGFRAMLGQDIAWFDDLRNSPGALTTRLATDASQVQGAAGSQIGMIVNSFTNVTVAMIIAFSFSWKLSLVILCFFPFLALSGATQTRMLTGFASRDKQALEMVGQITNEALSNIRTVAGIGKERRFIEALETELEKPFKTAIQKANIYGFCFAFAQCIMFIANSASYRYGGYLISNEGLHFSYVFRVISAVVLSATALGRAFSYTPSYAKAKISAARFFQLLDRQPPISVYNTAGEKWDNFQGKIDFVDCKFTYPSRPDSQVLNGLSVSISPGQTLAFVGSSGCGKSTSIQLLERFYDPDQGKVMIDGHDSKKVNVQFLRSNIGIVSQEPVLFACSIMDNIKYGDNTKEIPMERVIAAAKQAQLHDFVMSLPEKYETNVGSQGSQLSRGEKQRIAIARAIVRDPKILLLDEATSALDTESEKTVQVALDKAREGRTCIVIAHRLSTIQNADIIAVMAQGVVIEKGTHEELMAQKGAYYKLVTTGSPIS
human recombinant LPA1 expressed in CHO cells, sequence (Q92633 whole entry): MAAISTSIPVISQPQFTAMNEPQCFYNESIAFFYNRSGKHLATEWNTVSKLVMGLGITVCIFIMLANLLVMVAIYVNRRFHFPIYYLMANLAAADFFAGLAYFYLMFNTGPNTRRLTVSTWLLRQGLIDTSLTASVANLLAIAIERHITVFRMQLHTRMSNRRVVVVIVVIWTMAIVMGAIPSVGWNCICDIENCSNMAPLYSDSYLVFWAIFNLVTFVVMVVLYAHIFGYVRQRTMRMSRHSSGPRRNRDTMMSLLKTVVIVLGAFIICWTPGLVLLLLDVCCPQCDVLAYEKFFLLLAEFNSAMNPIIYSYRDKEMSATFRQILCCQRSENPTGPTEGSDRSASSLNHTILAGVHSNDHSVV

Row | SMILES | IC50 [1] [nM] | inhibition at 10 min, 50 μM [2] [%]
1 | C[C@@H](OC(=O)Nc1c(-c2ccc(NC(=O)[C@H]3CCCC[C@@H]3C(=O)O)cc2)nnn1C)c1ccccc1Cl [Example 23, (1S,2S)-2-((4-(5-((((R)-1-(2-chlorophenyl)ethoxy)carbonyl)amino)-1-methyl-1H-1,2,3-triazol-4-yl)phenyl)carbamoyl)cyclohexane-1-carboxylic acid] | < 50 | ≤ 50
2 | Cc1nc(-c2cnn(C)c2NC(=O)O[C@H](C)c2ccccc2)ccc1NC(=O)[C@H]1CCCC[C@@H]1C(=O)O [Example 43, (1S,2S)-2-((2-methyl-6-(1-methyl-5-((((R)-1-phenylethoxy)carbonyl)amino)-1H-pyrazol-4-yl)pyridin-3-yl)carbamoyl)cyclohexane-1-carboxylic acid] | 50 to 250 | ≤ 50
3 | Cc1nc(-c2nnn(C)c2NC(=O)O[C@H](C)c2ccccc2)ccc1NC(=O)[C@H]1CCCC[C@@H]1C(=O)O [Example 44, (1S,2S)-2-((2-methyl-6-(1-methyl-5-((((R)-1-phenylethoxy)carbonyl)amino)-1H-1,2,3-triazol-4-yl)pyridin-3-yl)carbamoyl)cyclohexane-1-carboxylic acid] | < 50 | ≤ 50
4 | Cc1nc(-c2nnn(C)c2NC(=O)O[C@H](C)c2ccccc2C(F)(F)F)ccc1NC(=O)[C@H]1CCCC[C@@H]1C(=O)O [Example 45, (1S,2S)-2-((2-methyl-6-(1-methyl-5-((((R)-1-(2-(trifluoromethyl)phenyl)ethoxy)carbonyl)amino)-1H-1,2,3-triazol-4-yl)pyridin-3-yl)carbamoyl)cyclohexane-1-carboxylic acid] | 50 to 250 | ≤ 50
5 | Cc1nc(-c2nnn(C)c2NC(=O)O[C@H](C)c2ccccc2F)ccc1NC(=O)[C@H]1CCCC[C@@H]1C(=O)O [Example 47, (1S,2S)-2-((6-(5-((((R)-1-(2-fluorophenyl)ethoxy)carbonyl)amino)-1-methyl-1H-1,2,3-triazol-4-yl)-2-methylpyridin-3-yl)carbamoyl)cyclohexane-1-carboxylic acid] | < 50 | ≤ 50
6 | CCn1nnc(-c2ccc(NC(=O)[C@H]3CCCC[C@@H]3C(=O)O)c(C)n2)c1NC(=O)O[C@H](C)c1ccccc1Cl [Example 48, (1S,2S)-2-((6-(5-((((R)-1-(2-chlorophenyl)ethoxy)carbonyl)amino)-1-ethyl-1H-1,2,3-triazol-4-yl)-2-methylpyridin-3-yl)carbamoyl)cyclohexane-1-carboxylic acid] | < 50 | ≤ 50
7 | Cc1nc(-c2cnn(C)c2NC(=O)O[C@H](C)C2CCCC2)ccc1NC(=O)[C@H]1CCCC[C@@H]1C(=O)O [Example 51, (1S,2S)-2-((6-(5-((((R)-1-cyclopentylethoxy)carbonyl)amino)-1-methyl-1H-pyrazol-4-yl)-2-methylpyridin-3-yl)carbamoyl)cyclohexane-1-carboxylic acid] | 250 to 600 | ≤ 50
8 | CCC[C@@H](C)OC(=O)Nc1c(-c2ccc(NC(=O)[C@H]3CCCC[C@@H]3C(=O)O)c(C)n2)nnn1C [Example 52, (1S,2S)-2-((2-methyl-6-(1-methyl-5-(((((R)-pentan-2-yl)oxy)carbonyl)amino)-1H-1,2,3-triazol-4-yl)pyridin-3-yl)carbamoyl)cyclohexane-1-carboxylic acid] | 50 to 250 | ≤ 50
9 | C[C@@H](OC(=O)Nc1c(-c2ccc(NC(=O)[C@H]3CCCC[C@@H]3C(=O)O)c(F)n2)nnn1C)c1ccccc1Cl [Example 53, (1S,2S)-2-((6-(5-((((R)-1-(2-chlorophenyl)ethoxy)carbonyl)amino)-1-methyl-1H-1,2,3-triazol-4-yl)-2-fluoropyridin-3-yl)carbamoyl)cyclohexane-1-carboxylic acid] | < 50 | ≤ 50

More lines, main results first:

Row | IC50 [1] [nM] | SMILES | inhibition at 10 min, 50 μM [2] [%]
10 | 50 to 250 | Cc1nc(-c2onc(C)c2NC(=O)O[C@H](C)c2cccnc2)ccc1NC(=O)[C@H]1CCCC[C@@H]1C(=O)O [Example 15, (1S,2S)-2-((2-methyl-6-(3-methyl-4-((((R)-1-(pyridin-3-yl)ethoxy)carbonyl)amino)isoxazol-5-yl)pyridin-3-yl)carbamoyl)cyclohexane-1-carboxylic acid] | ≤ 50
11 | 50 to 250 | Cc1noc(-c2ccc(NC(=O)[C@H]3CCCC[C@@H]3C(=O)O)cn2)c1NC(=O)OC(C)c1cccnc1F (stereo partly drawn) [Example 17, (1S,2S)-2-((6-(4-(((1-(2-fluoropyridin-3-yl)ethoxy)carbonyl)amino)-3-methylisoxazol-5-yl)pyridin-3-yl)carbamoyl)cyclohexane-1-carboxylic acid] | ≤ 50
12 | 250 to 600 | Cc1nc(-c2onc(C)c2NC(=O)O[C@H](C)c2nccs2)ccc1NC(=O)[C@H]1CCCC[C@@H]1C(=O)O [Example 22, (1S,2S)-2-((2-methyl-6-(3-methyl-4-((((R)-1-(thiazol-2-yl)ethoxy)carbonyl)amino)isoxazol-5-yl)pyridin-3-yl)carbamoyl)cyclohexane-1-carboxylic acid] | ≤ 50
13 | 50 to 250 | Cc1noc(-c2ccc(NC(=O)[C@H]3CCCC[C@@H]3C(=O)O)cn2)c1NC(=O)O[C@H](C)c1cccnc1Cl [Example 29, (1S,2S)-2-((6-(4-((((R)-1-(2-chloropyridin-3-yl)ethoxy)carbonyl)amino)-3-methylisoxazol-5-yl)pyridin-3-yl)carbamoyl)cyclohexane-1-carboxylic acid] | ≤ 50
14 | 250 to 600 | Cc1noc(-c2ccc(N(C)C(=O)[C@H]3CCCC[C@@H]3C(=O)O)cn2)c1NC(=O)O[C@H](C)c1cccnc1Cl [Example 30, (1S,2S)-2-((6-(4-((((R)-1-(2-chloropyridin-3-yl)ethoxy)carbonyl)amino)-3-methylisoxazol-5-yl)pyridin-3-yl)(methyl)carbamoyl)cyclohexane-1-carboxylic acid] | ≤ 50
15 | < 50 | Cc1noc(-c2ncc(NC(=O)[C@H]3CCCC[C@@H]3C(=O)O)cc2F)c1NC(=O)O[C@H](C)c1ccccc1Cl [Example 31, (1S,2S)-2-((6-(4-((((R)-1-(2-chlorophenyl)ethoxy)carbonyl)amino)-3-methylisoxazol-5-yl)-5-fluoropyridin-3-yl)carbamoyl)cyclohexane-1-carboxylic acid] | ≤ 50
16 | 50 to 250 | COc1ccccc1[C@@H](C)OC(=O)Nc1c(C)noc1-c1ccc(NC(=O)[C@H]2CCCC[C@@H]2C(=O)O)cn1 [Example 37, (1S,2S)-2-((6-(4-((((R)-1-(2-methoxyphenyl)ethoxy)carbonyl)amino)-3-methylisoxazol-5-yl)pyridin-3-yl)carbamoyl)cyclohexane-1-carboxylic acid] | ≤ 50
17 | < 50 | Cc1noc(-c2ccc(NC(=O)[C@H]3CCCC[C@@H]3C(=O)O)cn2)c1NC(=O)O[C@H](C)c1ccccc1 [Example 41, (1S,2S)-2-((6-(3-methyl-4-((((R)-1-phenylethoxy)carbonyl)amino)isoxazol-5-yl)pyridin-3-yl)carbamoyl)cyclohexane-1-carboxylic acid] | ≤ 50
